Patent US20260224521A1, “BIOMOLECULE FOR TREATMENT OF CORNEAL PATHOLOGIES” (Board of Supervisors of Louisiana State University and …, priority 2019, published 2026)
Entries after “also recorded” stand apart in the source; their conditions may differ.

How the values were obtained:
mouse cornea [1] = assay: Corneal sensitivity measurement (Belmonte non-contact aesthesiometer); format: in vivo; details: for recovery of corneal sensitivity: compared to PEDF+DHA (and RvD6) treatment; for corneal sensitivity: vs vehicle
Procedure: Corneal sensitivity was evaluated at days 3, 6, 9 and 12 after corneal injury and treatment (FIG. 4). A new methodology to measure the sensation in mouse cornea was introduced using the Belmonte non-contact aesthesiometer. […] It is important to note that this range of normal corneal sensitivity is critical to evaluate corneal sensation since the Belmonte non-contact aesthesiometer working flow rate is from 20 to 200 ml/min. The range of normal corneal sensitivity from […] in the mouse was regarded as successful recovery after injury and treatment, and it was used to normalize the measurements.
(§1) Mice were anesthetized with a mix of ketamine (200 mg/kg) and xylazine (10 mg/kg) injected intraperitoneally, and one drop of proparacaine hydrochloride solution (0.5%) was applied to the right eye subjected to injury. As previously described (19, 29), the center of the cornea was demarcated with a 2 mm trephine, and the epithelium and the anterior stroma were gently removed under a surgical microscope using a corneal rust ring remover (Algerbrush II; Alger Equipment Co., Lago Vista, TX, USA). One drop of 0.3% of tobramycin ophthalmic solution (Henry Schein, Melville, NY, USA) was applied to the eye to prevent postoperative infection. The same investigator (J.H.) performed all surgeries. Afterward, 10 μl of PEDF (50 ng/ml) plus DHA (50 nM) or DHA-derived lipid mediators were applied topically, as explained in each experimental design.
The non-contact corneal aesthesiometer has been described as a more reliable method than the standard Cochet-Bonnet aesthesiometer to determine the corneal sensation threshold (54). Therefore, for corneal sensation measurement, the Belmonte non-contact corneal aesthesiometer (55) was used with some modification. Briefly, one researcher held the mouse and kept the air output needle at a distance of 3 mm from the cornea. Another researcher controlled the air flow rate. The measurements started at an air flow rate of 80 ml per minute and then increased gradually by ten units until the mouse started blinking. When the mouse blinked, the air flow rate was recorded as the final corneal sensitivity index.

mouse cornea [2] = assay: Corneal wound healing 20 h after injury (methylene blue stained wounded area); format: in vivo; details: for corneal wound healing: compared to PEDF+DHA (and RvD6) treatment
Procedure: Studies have shown that PEDF+DHA promotes corneal wound healing in rabbit (20, 21), and in normal and diabetic mice (24, 25) after experimental surgery. We validated the ability of RvD6s (either RvD6 or RvD6si) in stimulating corneal wound healing. The right mouse eyes were injured, and the animals were divided into four groups: vehicle, PEDF+DHA, RvD6, and RvD6si (FIG. 4).
as §1
Mice were euthanized 20 h after injury and treatment, and corneas were stained with 0.5% methylene blue for 20 sec and then washed with PBS for 2 min. Photographs were taken with a dissecting microscope (SMZ 1500; Nikon, Tokyo, Japan) through an attached digital camera (DXM 1200; Nikon). The images corresponding to the wounded area were quantified using Photoshop CC 2014 software (Adobe, San Jose, CA, USA).

mouse cornea [3] = assay: Mouse corneal epithelium removal inside 2 mm diameter central area; format: in vivo; details: topical eye drops, 3× daily for 12 days; 2020 (40)
Procedure: as §1

[4] = system: trigeminal ganglion (TG) gene expression; assay: Trigeminal ganglion RNA sequencing after corneal injury and treatment; format: in vivo, mouse; details: RNA-seq, 12 days after corneal injury and topical treatment, vs vehicle
Procedure: Because corneal sensory nerves originate in TG neurons, we wanted to validate whether corneal injury could be sensed in the TG and t, in turn, would elicit a gene expression response. Thus, TG were harvested 12 days after injury and treatment with RvD6si or RvD6 or vehicle treatment used as control (FIG. 4) and then RNA-seq analysis was performed. […] The box plots depict two activated genes by RvD6si in this class: C9orf72 and Gpm6a (FIG. 6). We also detected specific genes related to neuropeptides and ion channel receptors in the cornea that are stimulated by the addition of PEDF+DHA (19, 21, 24) (FIG. 6D). The RNA-seq established that RvD6 or RvD6si reduced gene expression of two major neuropeptides, tachykinin precursor 1 (Tac1) that encodes Substance P (SP) and calcitonin-related polypeptide beta (Calcb). It is important to note that these neuropeptides, especially Calcb, are major pain-induced mediators in migraine and other primary headaches (30).
TG corresponding to the injury eye side (n=5) were harvested and kept in RNAlater solution (Thermo Fisher Scientific) until homogenized on ice using a Dounce homogenizer. Total mRNA was extracted using an RNeasy mini kit (Qiagen, Germantown, MD, USA) as described by the manufacturer. Purity and concentration of RNA were determined with a NanoDrop ND-1000 spectrophotometer (Thermo Fisher Scientific), and the samples were stored at −80° C. until used. RNA sequencing was performed using the adapted Smart-seq2 protocol (56). Briefly, one ng of total RNA was reverse transcribed with the Oligo-dT30VN and template-switching oligo (TSO) primers. The total cDNAs were amplified using ISPCR primer, and the library was made using the Nextera XT DNA library preparation kit (Illumina, San Diego, CA, USA). The libraries were pooled using the same molarity and sequenced using the NextSeq 500/550 High Output Kit v2 (75 cycles, Illumina). After demultiplexing, RNA-seq data were aligned to the GENCODE GRCm38 mouse primary genome assembly (Release M22, gencodegenes.org/mouse/) using the RSubread package v1.34.6 for R v3.6.1 (57). The outputted BAM files for sequencing data alignment were counted using featureCounts function (Subread v1.6.5 in Ubuntu LTS 16.4 operating system) (58). Next, the raw count data were subjected to differential gene expression analysis using DESeq2 package for R (59). The adjusted p-values were regarded as the false discover rate (FDR).

corneal nerves = assay: Corneal nerve analysis (PGP9.5 and SP whole-mount nerve density); format: in vivo, mouse
Text: PEDF+DHA stimulates corneal nerve regeneration in injury animal models (20-25). It was important to confirm the biological activity of RvD6si as a lipid mediator underlying the action of PEDF+DHA. To validate this, mice were injured and treated (as described in FIG. 4). Isolated corneas were stained with PGP 9.5, a pan-neuronal marker, and with SP neuropeptide antibodies. The density of non-injured corneal nerves positive to PGP 9.5 and SP, respectively, was used to normalize the values (FIG. 5). Substance P is a main neuropeptide in mammalian corneas (26-28).
as §1
Twelve days after injury and treatment, mice were euthanized, and the eyes enucleated and fixed with Zamboni's fixative (American Master Tech Scientific, Lodi, CA, USA) for 45 min at room temperature. The corneas were then excised and fixed for an additional 15 min, followed by 3 washes with PBS. To block nonspecific binding, corneas were incubated with 10% normal goat serum plus 0.5% Triton X-100 in PBS for 1 h at room temperature. Afterward, corneas were incubated with the primary antibodies, rabbit monoclonal anti-PGP9.5 (1:500), (ab108986; Abcam, Cambridge, MA, USA), and rat monoclonal anti-substance-P (SP; 1:100) (sc-21715; Santa Cruz Biotechnology, Dallas, TX, USA) for 24 h at room temperature with constant shaking. After being washed with PBS, the corneas were incubated with the corresponding secondary antibodies goat anti-rabbit Alexa-Fluor 488 (1:1000) and goat anti-rat Alexa-Fluor 488 (1:1000) (Thermo Fisher Scientific, Waltham, MA, USA) for 24 h at 4° C. Four radial cuts were performed on each cornea that was flatly mounted on a slide with the endothelium side up and examined with a fluorescent microscope (Deconvolution microscope DP80; Olympus, Tokyo, Japan). The images were merged together to build the entire view of the corneal nerve network. The corneal nerve density was measured using Photoshop CC 2014 (Adobe) as previously described (26, 29).

Structure (SMILES): CC/C=C\C[C@@H](O)/C=C/C=C\C/C=C\C/C=C\C=C\[C@H](O)CCC(=O)O (single isomer, unassigned) [RvD6si]
- recovery of corneal sensitivity (mouse cornea [1]): more potently
- recovery of corneal sensitivity (mouse cornea [1]; listed as RvD6i): accelerated; also recorded: sooner
- corneal sensitivity (mouse cornea [1]; day 3 after injury and treatment): faster recovery; also recorded: significantly higher
- corneal sensitivity (mouse cornea [1]; day 6 after injury and treatment): faster recovery; also recorded: significantly higher
- corneal sensitivity (mouse cornea [1]; day 9 after injury and treatment): significantly higher
- corneal wound healing (wound closure) (mouse cornea [2]; 20 h after injury and topical treatment, compared to vehicle): greatest increase
- corneal wound healing (mouse cornea [2]): more potently
- corneal wound healing (mouse cornea [2]; listed as RvD6i): accelerated
- corneal wound healing, sensitivity and nerve regeneration (mouse cornea [3]): Increased corneal wound healing, sensitivity
- C9orf72 gene expression in TG [4]: activated; also recorded: strong activation
- Calcb gene expression in TG [4]: reduced; also recorded: decreased
- Gpm6a gene expression in TG [4]: activated; also recorded: strong activation
- Nrp1 gene expression in TG [4]: selectively enhanced; also recorded: selective increase
- Rictor gene expression in TG [4]: strong induction; also recorded: potently and selectively induces
- Tac1 gene expression in TG [4]: reduced; also recorded: decreased
- Trpm8 gene expression in TG [4]: selectively enhanced; also recorded: increased expression
- C9orf72 gene expression in TG ([4]; listed as RvD6i): induces
- Calcb gene expression in TG ([4]; listed as RvD6i): decreased; also recorded: down-regulated
- Gpm6a gene expression in TG ([4]; listed as RvD6i): induces
- Rictor gene expression in TG ([4]; listed as RvD6i): strong inducer; also recorded: up-regulated
- Tac1 gene expression in TG ([4]; listed as RvD6i): decreased; also recorded: down-regulated
- Trpm8 gene expression in TG ([4]; listed as RvD6i): increased; also recorded: up-regulated
- total corneal nerve density, differences between RvD6si, RvD6, and PEDF+DHA (corneal nerves; 12 days after injury and treatment): no significant differences
- total corneal nerve density (PGP 9.5) (corneal nerves; 12 days after injury and treatment, % of the normal (uninjured) cornea): 62.6±4.2%
- density of SP-positive nerves (corneal nerves; 12 days after injury, compared to the vehicle-treated group): higher
